{
  "source": "patent US20250009885A1",
  "about": "“INJECTABLE PHARMACEUTICAL FORMULATIONS OF LEFAMULIN” (NABRIVA THERAPEUTICS GMBH, priority 2015, published 2025)",
  "format_in_all_cases": "physicochemical",
  "key": {"[1]": {"experiment": "Solubility of BC-3781 acetate in various media", "description": "The solubility of BC-3781 acetate in various media is as follows: […]"}, "[2]": {"experiment": "pKa value measured"}, "[3]": {"experiment": "Stability at physiological pH", "details": "pH 6.8 to 7.4", "description": "Reported local tolerability issues are often linked to insufficient solubity of the compound at physiological pH which, however, is not the case for BC-3781."}},
  "data": [
    {"smiles": "C=C[C@]1(C)C[C@@H](OC(=O)CS[C@@H]2CC[C@@H](N)C[C@H]2O)[C@]2(C)[C@H](C)CC[C@]3(CCC(=O)[C@H]32)[C@@H](C)[C@@H]1O", "note": "[BC-3781 acetate, 14-O-{[(1R, 2R, 4R)-4-amino-2-hydroxy-cyclohexylsulfanyl]-acetyl}-mutilin]", "values": [
      {"measurement": "solubility", "setting": "[1]; aqueous buffer, pH 7.4 (300 mM phosphate buffer)", "result": "≥ 100", "unit": "mg/mL"},
      {"measurement": "solubility", "setting": "[1]; water", "result": "≥ 100", "unit": "mg/mL"}
    ]},
    {"smiles": "C=C[C@]1(C)C[C@@H](OC(=O)CS[C@@H]2CC[C@@H](N)C[C@H]2O)[C@]2(C)[C@H](C)CC[C@]3(CCC(=O)[C@H]32)[C@@H](C)[C@@H]1O", "note": "[BC-3781, 14-O-{[(1R, 2R, 4R)-4-amino-2-hydroxy-cyclohexylsulfanyl]-acetyl}-mutilin]", "values": [
      {"measurement": "pKa", "setting": "[2]", "result": 9.41},
      {"measurement": "Stability at physiological pH", "setting": "[3]", "result": "excellent stability"}
    ]}
  ]
}
